Measured values from patent publication US7186861B2 (priority 2002, dated 2007).

Tested on: Plasmopara viticola
Assay: Activity against downy mildew of grapes caused by Plasmopara viticola (lasting effect, inoculation 7 days after spraying)
Type: in vivo
Conditions: 63 ppm active compound; potted vines Müller-Thurgau; inoculated 7 days after spraying; untreated plants 90% infected
Protocol: The active compounds were prepared, separately or together, as a 10% emulsion in a mixture of 70% by weight of cyclohexanone, 20% by weight of Nekanil® LN (Lutensol® AP6, wetting agent with an emulsifying and dispersing action based on ethoxylated alkylphenols) and 10% by weight of Wettol® EM (nonionic emulsifier based on ethoxylated castor oil) and were appropriately diluted with water to the desired concentration.
Leaves of potted vines of the variety “Müller-Thurgau” were sprayed to runoff point with an aqueous preparation of active compound prepared from a stock solution consisting of 10% of active compound, 85% of cyclohexanone and 5% of emulsifier. In order to be able to assess the lasting effects of the substances, the plants, after the spray coating had dried on, were placed in a greenhouse for 7 days. Only then were the leaves inoculated with an aqueous suspension of zoospores of Plasmopara viticola. The vines were then initially placed in a chamber saturated with water vapor at 24° C. for 48 hours and subsequently in a greenhouse at temperatures of between 20 and 30° C. for 5 days. After this period of time, the plants were once more placed in a humid chamber for 16 hours to accelerate the eruption of sporangiphores. The extent to which the infection had developed on the undersides of the leaves was then determined visually.

SMILES | infection [%]
CCC=C(C(=O)NCCc1ccc(OCC)c(OC)c1)c1ccc(Cl)c(Cl)c1 [Compound I-44] | 3
CC/C=C(/C(=O)NCCc1ccc(OCC)c(OC)c1)c1ccc(Cl)c(Cl)c1 [compound A] | 40
